Laboratory results from patent US20230168259A1, “METHOD FOR PREDICTING THE COURSE OF A VIRAL DISEASE” (Leibniz-Institut für Virologie, priority 2020, published 2023).

Key:
SARS-CoV-2 = experiment: Virus titer (plaque assay on VeroE6 cells) in organs of SARS-CoV-2 infected hamsters treated with letrozole or placebo; assay type: in vivo, Syrian golden hamster; settings: 0.18 mg kg-1 i.p. daily, 3 d p.i., compared to placebo
MIP-1α = test system: MIP-1α; design: species or system Syrian golden hamster; settings: hamster, in vivo, ip
MIP-1β = test system: MIP-1β; design: species or system Syrian golden hamster; settings: hamster, in vivo, ip
[1] = SARS-CoV-2-infected female hamsters
[2] = SARS-CoV-2-infected male hamsters

N#Cc1ccc(C(c2ccc(C#N)cc2)n2cncn2)cc1 [letrozole]
virus titer in brain (SARS-CoV-2; [1]): lower virus titers
virus titer in lungs (SARS-CoV-2; [1]): lower virus titers
virus titer in plasma (SARS-CoV-2; [1]): lower virus titers
virus titer in brain (SARS-CoV-2; [2]): lower virus titers
virus titer in lungs (SARS-CoV-2; [2]): lower virus titers
virus titer in testis (SARS-CoV-2; [2]): lower virus titers
expression level of MIP-1α in lungs (MIP-1α): lower
expression level of MIP-1β in lungs (MIP-1β): lower
